Common to all, as to test: NCI-60 cell line screen, 48 h
The subject of test [1] is HOP-62.
In test [2] the test system is Hs-578T.
The subject of test [3] is SF-268.
Test [4] relates to KM12.
The test system of test [5] is A498.
Test [6] relates to CCRF-CEM.
The subject of test [7] is UACC-62.
Test [8] deals with NCI-H460.
The test system of test [9] is MDA-MB-231.
The test system of test [10] is ACHN.
In test [11] the test system is OVCAR-5.
Test [12] has as its system K562.
Test [13] relates to TK-10.
In test [14] the test system is DU-145.
The test system of test [15] is NCI-H226.
The subject of test [16] is M14.
Test [17] concerns HCT-15.
Test [18] deals with T47D.
Test [19] concerns COLO 205.
Test [20] has as its system MDA-N.

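Cells were grown in 96-well plates and exposed to each compound for 48 hours at five concentrations; endpoints were interpolated linearly between bracketing concentrations, or set to the highest concentration if not reached. GI50 = concentration required for 50% inhibition of growth.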 Calls of active or inactive are those of the source. Cut-off read from the data, not from the text of the source: active = GI50 up to about 1.1 µM and inactive = higher.

On to `S=C1N=C(Cl)/C(=C\c2ccco2)N1`, for which the GI50 in [1], in test [2], in [3], in [4], in test [5] and in test [6] was > 100 µM (inactive) throughout. The GI50 in test [7], in test [8], in [9], in [10], in test [11] and in [12] was > 100 µM (inactive) throughout. In addition, the GI50 in test [13] is > 100 µM (inactive); in test [14], > 100 µM (inactive); in test [15] it was > 80.5 µM (inactive); in test [16] it was > 100 µM (inactive); in test [17], more than 100 µM; in [18], > 100 µM (inactive). In addition, the GI50 in [19] is > 100 µM (inactive).
Turning to `CCN=C=NCCCN(C)C`, the GI50 in test [1], in test [2], in test [3], in test [4], in test [5] and in test [6] was > 100 µM (inactive) throughout. The GI50 in [7], in test [20], in [8], in test [9], in test [10] and in [11] was > 100 µM (inactive) each time. Moreover, the GI50 in test [12] was > 100 µM (inactive); in test [13] it was > 100 µM (inactive); in test [14] it was > 100 µM (inactive); in [15], > 100 µM (inactive); in test [16], > 100 µM (inactive); in [17] it was more than 100 µM. Moreover, the GI50 in test [19] was > 100 µM (inactive).
Turning to `O=C(NCc1ccccc1)c1cc2cc(O)c(O)cc2cn1`, the GI50 in [1] was 20 µM (inactive); in test [3], 14.4 µM (inactive); in [4], 31.9 µM (inactive); in test [5], 73.3 µM (inactive); in [6] it was 6.4 µM (inactive); in [7], 16.6 µM (inactive). The GI50 is 9.79 µM (inactive) in test [8]; 12.5 µM (inactive) in [10]; 33.5 µM (inactive) in [11]; 12.1 µM (inactive) in test [12]; 39.9 µM (inactive) in test [13]; 26.9 µM (inactive) in [15]. The figures for the GI50 in [16], in test [17] and in [19] were 16.6 µM (inactive), 20 µM and 34.8 µM (inactive), respectively.
In the case of `NC(=S)N/N=C1/CN(c2ccc(Cl)c(Cl)c2)CC(=O)C1c1nc2ccccc2s1` (configuration not stated), the GI50 in [1] is > 100 µM (inactive); in test [3], 46.8 µM (inactive); in test [4], 42.9 µM (inactive); in test [5], > 100 µM (inactive); in test [6], 66.2 µM (inactive); in [7], 55.7 µM (inactive). In addition, the GI50 is > 100 µM (inactive) in test [8]; 93.3 µM (inactive) in [10]; > 100 µM (inactive) in [11]; 43 µM (inactive) in [12]; > 100 µM (inactive) in test [13]; 78.7 µM (inactive) in test [15]. In addition, the GI50 in test [16] was > 100 µM (inactive); in test [17], more than 100 µM; in [19] it was > 100 µM (inactive).
For `CCN(CC)CCSc1c2ccccc2nc2c(OC)ccc(OC)c12`, the GI50 was 31.8 µM (inactive) in [1]; 15.1 µM (inactive) in test [3]; 5.79 µM (inactive) in [4]; 13.3 µM (inactive) in test [5]; 2.13 µM (inactive) in test [6]; 3.77 µM (inactive) in test [7]. Also, the GI50 in test [8] was 10.8 µM (inactive); in test [10] it was 5.61 µM (inactive); in [11], 29.9 µM (inactive); in test [12] it was 2.94 µM (inactive); in [13], 4.97 µM (inactive); in test [15] it was 29.5 µM (inactive). The GI50 in [16] is 2.44 µM (inactive); in test [17], 3.15 µM; in test [19], 2.72 µM (inactive).
Regarding `CCCC(=O)/C=C/S/C=C/C(=O)CCC`, the GI50 is 11.4 µM (inactive) in [1]; 4.67 µM (inactive) in test [2]; 26.9 µM (inactive) in [3]; 15.3 µM (inactive) in test [4]; 12.2 µM (inactive) in test [7]; 5.3 µM (inactive) in test [8]. Moreover, the GI50 in test [9] was 4.84 µM (inactive); in test [10], 2.7 µM (inactive); in [11] it was 3.41 µM (inactive); in [13], 2.51 µM (inactive); in test [14], 11.5 µM (inactive); in test [15] it was 3.72 µM (inactive). The GI50 was 3.28 µM (inactive) in test [16], 2.36 µM in [17], 4.09 µM (inactive) in test [18] and 2.23 µM (inactive) in test [19].
Take `O=C1CC(c2ccccc2)n2cccc21` (configuration not stated): the GI50 in test [1], in test [2], in test [3], in [4], in test [5] and in [6] was > 100 µM (inactive) throughout. The GI50 in test [7], in test [9], in test [10], in test [11], in [12] and in test [13] was > 100 µM (inactive) in each case. The GI50 in [14] was > 100 µM (inactive); in [15] it was > 100 µM (inactive); in test [16], > 100 µM (inactive); in [17] it was more than 100 µM; in test [18], > 100 µM (inactive); in test [19], > 100 µM (inactive).
As to `CC(C)c1ccc(NC(=S)NC(=O)c2ccccc2)cc1`, the GI50 is 33.8 µM (inactive) in test [1]; 31.8 µM (inactive) in test [2]; 21.4 µM (inactive) in [3]; 18.2 µM (inactive) in test [4]; 22.9 µM (inactive) in test [5]; 11.4 µM (inactive) in test [6]. Also, the GI50 is 13.6 µM (inactive) in [7]; 15.5 µM (inactive) in test [8]; 26.6 µM (inactive) in test [9]; 18.2 µM (inactive) in test [10]; 28.3 µM (inactive) in test [11]; 12.1 µM (inactive) in test [12]. Further, the GI50 in test [13] is 18.2 µM (inactive); in test [14] it was 23.2 µM (inactive); in test [16] it was 17.3 µM (inactive); in test [17] it was 17.6 µM; in test [18], 18.7 µM (inactive); in [19], 16.3 µM (inactive).
On to `CCc1ccccc1NC(=O)CCc1nnc(S)[nH]1`, for which the GI50 in [1], in test [3], in test [4], in test [5], in test [6] and in test [7] was > 100 µM (inactive) throughout. The GI50 in test [8], in [10], in test [11], in [12], in [13] and in test [15] was > 100 µM (inactive) in each case. In addition, the GI50 in test [16] is > 100 µM (inactive); in test [17] it was more than 100 µM; in [19], > 100 µM (inactive).
For `N#Cc1c(-c2ccc([N+](=O)[O-])cc2)c(C#N)c(=O)n(NS(=O)(=O)c2ccccc2)c1S`, the GI50 is > 100 µM (inactive) in [1]; 20.8 µM (inactive) in test [2]; 30 µM (inactive) in [3]; 25.3 µM (inactive) in test [4]; 74.6 µM (inactive) in test [5]; 16 µM (inactive) in [6]. The GI50 is 20.7 µM (inactive) in [7]; 48.8 µM (inactive) in test [8]; 21.3 µM (inactive) in [9]; 37.8 µM (inactive) in [10]; 61 µM (inactive) in test [11]; 30.2 µM (inactive) in [12]. Moreover, the GI50 in test [13] was > 100 µM (inactive); in test [15], 65 µM (inactive); in [16], 37 µM (inactive); in test [17], 36.9 µM; in test [19] it was 46.5 µM (inactive).
`COC(=O)CCC12CCC(=O)C1[C@@H](C(=O)OC)C[C@H]2C(=O)OC` (some centres not stated): the GI50 in test [1], in [3], in test [4], in test [5], in test [6] and in test [7] was > 100 µM (inactive) throughout. The GI50 in test [8], in test [10], in test [11], in test [12], in test [13] and in [15] was > 100 µM (inactive) in each case. Also, the GI50 in test [16] was > 100 µM (inactive); in test [17] it was more than 100 µM; in [19] it was > 100 µM (inactive).
As for `O=S(=O)(c1ccccc1)N1N=C2c3ccccc3CCC[C@H]2C1c1ccccc1` (some centres not stated), the GI50 is > 100 µM (inactive) in test [1]; > 100 µM (inactive) in test [3]; > 92.3 µM (inactive) in [4]; > 100 µM (inactive) in test [5]; > 100 µM (inactive) in test [6]; > 87.1 µM (inactive) in [7]. Also, the GI50 is 98.6 µM (inactive) in test [8]; > 100 µM (inactive) in test [10]; > 100 µM (inactive) in test [11]; > 100 µM (inactive) in [12]; > 100 µM (inactive) in test [13]; > 66.1 µM (inactive) in test [15]. Further, the figures for the GI50 in test [16], in test [17] and in [19] were > 100 µM (inactive), more than 100 µM and > 100 µM (inactive), respectively.
